The values that follow come from patent publication US10654833B2, “ASK1 isoindolin-1-one inhibitors and methods of use thereof” (Hepatikos Therapeutics, LLC, priority 2018, dated 2020).

recombinant human ASK1 protein, sequence (Q99683 whole entry): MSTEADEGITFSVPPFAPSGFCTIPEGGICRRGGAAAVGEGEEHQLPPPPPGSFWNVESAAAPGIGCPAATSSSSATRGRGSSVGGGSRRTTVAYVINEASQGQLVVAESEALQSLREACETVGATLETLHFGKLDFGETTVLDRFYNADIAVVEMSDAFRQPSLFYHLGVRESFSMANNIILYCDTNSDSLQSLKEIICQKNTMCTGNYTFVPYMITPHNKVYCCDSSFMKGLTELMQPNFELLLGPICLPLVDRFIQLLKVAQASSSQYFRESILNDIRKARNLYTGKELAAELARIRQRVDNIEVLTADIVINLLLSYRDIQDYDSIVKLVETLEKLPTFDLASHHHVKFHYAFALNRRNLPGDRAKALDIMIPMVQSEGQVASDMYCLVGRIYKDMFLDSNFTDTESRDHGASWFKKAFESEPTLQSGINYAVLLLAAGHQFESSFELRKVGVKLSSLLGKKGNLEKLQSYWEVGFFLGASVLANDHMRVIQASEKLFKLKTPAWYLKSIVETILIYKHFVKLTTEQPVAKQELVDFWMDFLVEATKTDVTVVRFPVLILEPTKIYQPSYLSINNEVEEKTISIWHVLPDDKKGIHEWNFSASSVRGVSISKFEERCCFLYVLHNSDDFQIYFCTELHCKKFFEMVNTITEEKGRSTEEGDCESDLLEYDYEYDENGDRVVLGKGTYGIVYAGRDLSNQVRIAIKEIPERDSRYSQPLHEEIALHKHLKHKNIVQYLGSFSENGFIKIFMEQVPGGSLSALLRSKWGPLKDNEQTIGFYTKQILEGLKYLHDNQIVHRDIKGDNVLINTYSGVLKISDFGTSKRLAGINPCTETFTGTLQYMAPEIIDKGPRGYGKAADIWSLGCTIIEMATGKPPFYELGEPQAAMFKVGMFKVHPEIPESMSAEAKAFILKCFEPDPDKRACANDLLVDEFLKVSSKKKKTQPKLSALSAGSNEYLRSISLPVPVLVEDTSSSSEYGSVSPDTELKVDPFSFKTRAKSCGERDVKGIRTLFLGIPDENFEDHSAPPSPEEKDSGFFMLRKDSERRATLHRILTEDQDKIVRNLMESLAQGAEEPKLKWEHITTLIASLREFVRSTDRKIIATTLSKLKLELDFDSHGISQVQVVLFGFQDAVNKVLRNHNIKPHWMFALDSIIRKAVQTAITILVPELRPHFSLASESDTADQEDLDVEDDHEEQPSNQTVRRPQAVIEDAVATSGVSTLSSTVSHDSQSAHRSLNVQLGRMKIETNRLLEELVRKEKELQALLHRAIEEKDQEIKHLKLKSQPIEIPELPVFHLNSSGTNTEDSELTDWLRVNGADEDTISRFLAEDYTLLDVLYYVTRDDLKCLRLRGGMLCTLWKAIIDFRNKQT

For this experiment, the target named is recombinant human ASK1 protein (Homo sapiens (Human), UniProt Q99683). The experiment is described as follows: ASK1 kinase activity inhibition assay (radiometric 33P incorporation into MBP). The format is biochemical. The conditions noted are these: Table 3; 20 μM MBP, 10 μM 33P-ATP. On the procedure:
ASK1 Kinase Activity Inhibition Assay
Inhibition of ASK1 kinase activity was determined radiometrically using 33P substrate incorporation (Reaction Biology Corp., Malvern, Pa.). Briefly, recombinant human ASK1 protein, 20 μM substrate (myelin basic protein (MBP)), and compound (diluted from DMSO stock to give 1% final DMSO) were incubated in Base Reaction buffer (20 mM Hepes (pH 7.5), 10 mM MgCl2, 1 mM EGTA, 0.02% Brij35, 0.02 mg/mL BSA, 0.1 mM Na3VO4, 2 mM DTT, 1% DMSO) at room temperature for 20 minutes. The reaction was initiated by addition of 10 μM 33P-ATP (specific activity […]). The reaction was then allowed to proceed for 2 hours at room temperature. Upon reaction termination, the mixture was spotted on P81 exchange paper and kinase activity by incorporation of 33P into MBP substrate was detected by filter-binding method.
Regarding `CC(C(=O)O)c1ccc(-c2ccc3c(c2)C(=O)N(c2cccc(-c4nncn4C(C)C)n2)C3)cc1` (stereo not shown) [Compound 85, 2-(4-(2-(6-(4-Isopropyl-4H-1,2,4-triazol-3-yl)pyridin-2-yl)-3-oxoisoindolin-5-yl)phenyl)propanoic Acid], the IC50 came to 3.6 nM.
For `COc1c(C)cc(-c2ccc3c(c2)C(=O)N(c2cccc(-c4nncn4C(C)C)n2)C3)cc1C(=O)O` [Compound 80, 5-(2-(6-(4-Isopropyl-4H-1,2,4-triazol-3-yl)pyridin-2-yl)-3-oxoisoindolin-5-yl)-2-methoxy-3-methylbenzoic Acid] the value was 5.2 nM; for `CC(C)(C(=O)O)c1ccc(-c2ccc3c(c2)C(=O)N(c2cccc(-c4nncn4C4CC4)n2)C3)cc1` [Compound 53, 2-(4-(2-(6-(4-cyclopropyl-4H-1,2,4-triazol-3-yl)pyridin-2-yl)-3-oxoisoindolin-5-yl)phenyl)-2-methylpropanoic acid], 2.6 nM.
In the case of `CC(C)n1cnnc1-c1cccc(N2Cc3ccc(-c4ccc(C(C)(C)C(=O)O)cc4F)cc3C2=O)n1` [Compound 41, 2-(3-Fluoro-4-(2-(6-(4-isopropyl-4H-1,2,4-triazol-3-yl)pyridin-2-yl)-3-oxoisoindolin-5-yl)phenyl)-2-methylpropanoic Acid], the IC50 came out at 4.7 nM.
To `CC(C)n1cnnc1-c1cccc(N2Cc3ccc(-c4cccc(C(=O)O)c4F)cc3C2=O)n1` [Compound 2, 2-Fluoro-3-(2-(6-(4-isopropyl-4H-1,2,4-triazol-3-yl)pyridin-2-yl)-3-oxoisoindolin-5-yl) Benzoic Acid] belongs 4.3 nM.
With `Cc1ccc(C(=O)O)cc1-c1ccc2c(c1)C(=O)N(c1cccc(-c3nncn3C(C)C)n1)C2` [Compound 11, 3-(2-(6-(4-Isopropyl-4H-1,2,4-triazol-3-yl)pyridin-2-yl)-3-oxoisoindolin-5-yl)-4-methylbenzoic Acid], the IC50 amounted to 5.9 nM.
Turning to `Cc1cc(C(=O)O)c(C#N)c(-c2ccc3c(c2)C(=O)N(c2cccc(-c4nncn4C(C)C)n2)C3)n1` [Compound 118, 3-Cyano-2-(2-(6-(4-isopropyl-4H-1,2,4-triazol-3-yl)pyridin-2-yl)-3-oxoisoindolin-5-yl)-6-methylisonicotinic Acid], the IC50 came to 67.1 nM.
For `COC(=O)c1ccc(-c2ccc3c(c2)C(=O)N(c2cccc(-c4nncn4C(C)C)n2)C3)cc1` [Compound 81, Methyl 4-(2-(6-(4-isopropyl-4H-1,2,4-triazol-3-yl)pyridin-2-yl)-3-oxoisoindolin-5-yl)benzoate] the value was 14.9 nM; for `Cc1c(C(=O)O)cccc1-c1ccc2c(c1)C(=O)N(c1cccc(-c3nncn3C(C)C)n1)C2` [Compound 94, 3-(2-(6-(4-Isopropyl-4H-1,2,4-triazol-3-yl)pyridin-2-yl)-3-oxoisoindolin-5-yl)-2-methylbenzoic Acid], 6.9 nM.
For `O=C1c2cc(-c3ccc(-c4nnn[nH]4)cc3)ccc2CN1c1cccc(-c2nncn2C2CC2)n1` [Compound 92, 6-(4-(2H-Tetrazol-5-yl)phenyl)-2-(6-(4-cyclopropyl-4H-1,2,4-triazol-3-yl)pyridin-2-yl)isoindolin-1-one] the value was 5.52 nM.
For `CC(C)n1cnnc1-c1cccc(N2Cc3ccc(-c4c(F)cccc4C(=O)O)cc3C2=O)n1` [Compound 70, 3-Fluoro-2-(2-(6-(4-isopropyl-4H-1,2,4-triazol-3-yl)pyridin-2-yl)-3-oxoisoindolin-5-yl)benzoic Acid] the value was 160 nM; for `COC(=O)C(C)(C)c1cccc(-c2ccc3c(c2)C(=O)N(c2cccc(-c4nncn4C4CC4)n2)C3)c1` [Compound 104, Methyl 2-(3-(2-(6-(4-cyclopropyl-4H-1,2,4-triazol-3-yl)pyridin-2-yl)-3-oxoisoindolin-5-yl)phenyl)-2-methylpropanoate], 46.6 nM; for `COc1ccc(C(=O)O)cc1-c1ccc2c(c1)C(=O)N(c1cccc(-c3nncn3C(C)C)n1)C2` [Compound 8, 3-(2-(6-(4-Isopropyl-4H-1,2,4-triazol-3-yl)pyridin-2-yl)-3-oxoisoindolin-5-yl)-4-methoxybenzoic Acid], 10.7 nM.
Consider `CC(C)n1cnnc1-c1cccc(N2Cc3ccc(-c4cc(C(=O)O)ccc4F)cc3C2=O)n1` [Compound 5, 4-Fluoro-3-(2-(6-(4-isopropyl-4H-1,2,4-triazol-3-yl)pyridin-2-yl)-3-oxoisoindolin-5-yl)benzoic Acid], for which the IC50 came out at 0.3 nM.
To `CC(C)n1cnnc1-c1cccc(N2Cc3ccc(-c4ccccc4C(=O)O)cc3C2=O)n1` [Compound 56, 2-(2-(6-(4-Isopropyl-4H-1,2,4-triazol-3-yl)pyridin-2-yl)-3-oxoisoindolin-5-yl)benzoic Acid] belongs 42.2 nM; to `CC(C)n1cnnc1-c1cccc(N2Cc3ccc(-c4cc(F)cc(C(=O)O)c4)cc3C2=O)n1` [Compound 4, 3-Fluoro-5-(2-(6-(4-isopropyl-4H-1,2,4-triazol-3-yl)pyridin-2-yl)-3-oxoisoindolin-5-yl)benzoic Acid], 6.7 nM; to `Cc1cc(C(=O)O)ccc1-c1ccc2c(c1)C(=O)N(c1cccc(-c3nncn3C(C)C)n1)C2` [Compound 74, 4-(2-(6-(4-Isopropyl-4H-1,2,4-triazol-3-yl)pyridin-2-yl)-3-oxoisoindolin-5-yl)-3-methylbenzoic Acid], 5.7 nM.
Take `CC(C)n1cnnc1-c1cccc(N2Cc3ccc(-c4ccc(OCC(=O)O)cc4)cc3C2=O)n1` [Compound 89, 2-(4-(2-(6-(4-Isopropyl-4H-1,2,4-triazol-3-yl)pyridin-2-yl)-3-oxoisoindolin-5-yl)phenoxy) acetic Acid]: the IC50 was 4.9 nM.
For `CC(C)n1cnnc1-c1cccc(N2Cc3ccc(-c4cc(C#N)cc(C(=O)O)c4)cc3C2=O)n1` [Compound 13, 3-Cyano-5-(2-(6-(4-isopropyl-4H-1,2,4-triazol-3-yl)pyridin-2-yl)-3-oxoisoindolin-5-yl) benzoic Acid] the value was 1.6 nM; for `Cc1c(C(=O)O)ccnc1-c1ccc2c(c1)C(=O)N(c1cccc(-c3nncn3C(C)C)n1)C2` [Compound 114, 2-(2-(6-(4-Isopropyl-4H-1,2,4-triazol-3-yl)pyridin-2-yl)-3-oxoisoindolin-5-yl)-3-methylisonicotinic Acid], 2.1 nM; for `CC(C)n1cnnc1-c1cccc(N2Cc3ccc(-c4ccc(C(=O)O)c(Cl)c4)cc3C2=O)n1` [Compound 72, 2-Chloro-4-(2-(6-(4-isopropyl-4H-1,2,4-triazol-3-yl)pyridin-2-yl)-3-oxoisoindolin-5-yl)benzoic Acid], 4.7 nM.
To `CC(C)n1cnnc1-c1cccc(N2Cc3ccc(-c4ccc(CC(=O)O)cc4)cc3C2=O)n1` [Compound 84, 2-(4-(2-(6-(4-Isopropy-4H-1,2,4-triazol-3-yl)pyridin-2-yl)-3-oxoisoindolin-5-yl)phenyl)acetic Acid] belongs 4.3 nM.
Take `CC(C)n1cnnc1-c1cccc(N2Cc3ccc(N4CCCC(C(=O)O)C4)cc3C2=O)n1` (stereo not shown) [Compound 28, 1-(2-(6-(4-Isopropyl-4H-1,2,4-triazol-3-yl)pyridin-2-yl)-3-oxoisoindolin-5-yl)piperidine-3-carboxylic Acid]: the IC50 was found to be 11.2 nM.
For `O=C1c2cc(-c3ccc(C4(C(=O)O)CC4)cc3)ccc2CN1c1cccc(-c2nncn2C2CC2)n1` [Compound 87, 1-(4-(2-(6-(4-Cyclopropyl-4H-1,2,4-triazol-3-yl)pyridin-2-yl)-3-oxoisoindolin-5-yl)phenyl)cyclopropane-1-carboxylic Acid], the IC50 was determined as 2.5 nM.
For `CC(C)n1cnnc1-c1cccc(N2Cc3ccc(-c4ccc5c(c4)COC5=O)cc3C2=O)n1` [Compound 82, 2-(6-(4-Isopropyl-4H-1,2,4-triazol-3-yl)pyridin-2-yl)-6-(1-oxo-1,3-dihydroisobenzofuran-5-yl)isoindolin-1-one] the value was 3.2 nM; for `CC(C)n1cnnc1-c1cccc(N2Cc3ccc(-c4ccc(C(=O)O)cc4O)cc3C2=O)n1` [Compound 69, 3-Hydroxy-4-(2-(6-(4-isopropyl-4H-1,2,4-triazol-3-yl)pyridin-2-yl)-3-oxoisoindolin-5-yl)benzoic Acid], 6.6 nM; for `O=C(O)c1cccc(-c2ccc3c(c2)C(=O)N(c2cccc(-c4nncn4C4CC4)n2)C3)c1` [Compound 20, 3-(2-(6-(4-Cyclopropyl-4H-1,2,4-triazol-3-yl)pyridin-2-yl)-3-oxoisoindolin-5-yl)benzoic Acid], 5.3 nM.
As to `CC(C)n1cnnc1-c1cccc(N2Cc3ccc(-c4ccc5ncc(C(=O)O)n5c4)cc3C2=O)n1` [Compound 123, 6-(2-(6-(4-Isopropyl-4H-1,2,4-triazol-3-yl)pyridin-2-yl)-3-oxoisoindolin-5-yl)imidazo [1,2-a]pyridine-3-carboxylic Acid], the IC50 came to 3.5 nM.
With `Cc1c(C(=O)O)cc(N)cc1-c1ccc2c(c1)C(=O)N(c1cccc(-c3nncn3C(C)C)n1)C2` [Compound 68, 5-Amino-3-(2-(6-(4-isopropyl-4H-1,2,4-triazol-3-yl)pyridin-2-yl)-3-oxoisoindolin-5-yl)-2-methylbenzoic Acid], the concentration for half-maximal inhibition (IC50) stood at 12.4 nM.
To `CC(C)n1cnnc1-c1cccc(N2Cc3ccc(-c4ccc(CO)c(C(=O)O)c4)cc3C2=O)n1` [Compound 35, 2-(Hydroxymethyl)-5-(2-(6-(4-isopropyl-4H-1,2,4-triazol-3-yl)pyridin-2-yl)-3-oxoisoindolin-5-yl)benzoic Acid] belongs 4 nM; to `CC(C)n1cnnc1-c1cccc(N2Cc3ccc(-c4ccc5nc(C(=O)O)sc5c4)cc3C2=O)n1` [Compound 121, 6-(2-(6-(4-Isopropyl-4H-1,2,4-triazol-3-yl)pyridin-2-yl)-3-oxoisoindolin-5-yl)benzo[d]thiazole-2-carboxylic Acid], 4.1 nM.
